In publication PMC12448936, “Odorant Receptors Mediating Avoidance of Toxic Mustard Oils in Drosophila melanogaster Are Expanded in Herbivorous Relatives” (Molecular Biology and Evolution, 2025):
Read-outs that look alike come from different tables or passages of the source.

What was measured:
S. flava Or42a4 = target: T1, S. flava Or42a4 (Scaptomyza flava, UniProt Z9LG74I6Y6); assay: single sensillum recording, at1 empty neuron; type: cell-based
T1 construct: full coding region (UTRs removed) in UAST-attB, attP40 site; D. melanogaster at1 OSNs (Or67d null), host Orco; with Odorant receptor coreceptor (Drosophila melanogaster, endogenous in host neuron)
T1 sequence (Z9LG74I6Y6 1-404): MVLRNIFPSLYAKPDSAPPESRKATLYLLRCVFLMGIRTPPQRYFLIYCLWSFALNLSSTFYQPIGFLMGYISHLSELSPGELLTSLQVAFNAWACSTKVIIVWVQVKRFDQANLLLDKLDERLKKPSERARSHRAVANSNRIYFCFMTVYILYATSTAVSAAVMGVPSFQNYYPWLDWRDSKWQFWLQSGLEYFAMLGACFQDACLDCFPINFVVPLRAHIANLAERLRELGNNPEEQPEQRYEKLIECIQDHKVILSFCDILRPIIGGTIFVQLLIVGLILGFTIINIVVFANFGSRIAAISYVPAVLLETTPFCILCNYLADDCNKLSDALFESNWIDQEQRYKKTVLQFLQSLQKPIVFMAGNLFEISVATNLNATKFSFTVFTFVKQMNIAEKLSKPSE
T1 sequence (Q9VNB5 1-486 partner): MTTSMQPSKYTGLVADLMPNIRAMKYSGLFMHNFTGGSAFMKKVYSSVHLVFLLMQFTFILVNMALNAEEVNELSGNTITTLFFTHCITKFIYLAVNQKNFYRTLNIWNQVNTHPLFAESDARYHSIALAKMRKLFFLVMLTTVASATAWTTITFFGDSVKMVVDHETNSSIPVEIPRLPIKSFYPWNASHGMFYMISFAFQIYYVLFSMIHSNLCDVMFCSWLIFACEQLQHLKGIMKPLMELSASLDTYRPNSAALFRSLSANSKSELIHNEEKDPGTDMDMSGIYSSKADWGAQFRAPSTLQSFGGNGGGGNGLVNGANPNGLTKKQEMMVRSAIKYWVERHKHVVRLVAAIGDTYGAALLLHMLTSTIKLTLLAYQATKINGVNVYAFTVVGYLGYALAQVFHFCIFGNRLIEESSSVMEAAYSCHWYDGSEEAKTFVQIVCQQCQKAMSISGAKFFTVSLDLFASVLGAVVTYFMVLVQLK

S. pallida Or42a2 = target: T2, S. pallida Or42a2 (Scaptomyza pallida, UniProt Z9QWX1R862); assay: single sensillum recording, at1 empty neuron; type: cell-based; settings: bound given for three odorants together
T2 construct: full coding region in UAST-attB, attP40 site; D. melanogaster at1 OSNs (Or67d null), host Orco; with Odorant receptor coreceptor (Drosophila melanogaster, endogenous in host neuron)
T2 sequence (Z9QWX1R862 1-406): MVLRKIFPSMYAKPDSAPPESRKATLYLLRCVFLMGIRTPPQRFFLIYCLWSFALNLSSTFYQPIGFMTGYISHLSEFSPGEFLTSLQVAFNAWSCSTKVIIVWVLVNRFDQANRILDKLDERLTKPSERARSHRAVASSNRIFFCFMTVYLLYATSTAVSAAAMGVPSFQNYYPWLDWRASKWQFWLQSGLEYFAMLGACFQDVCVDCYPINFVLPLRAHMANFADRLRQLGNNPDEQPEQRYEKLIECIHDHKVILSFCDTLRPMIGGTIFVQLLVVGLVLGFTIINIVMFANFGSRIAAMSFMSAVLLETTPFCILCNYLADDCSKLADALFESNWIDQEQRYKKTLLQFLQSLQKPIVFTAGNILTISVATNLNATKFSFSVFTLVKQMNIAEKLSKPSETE
T2 sequence (Q9VNB5 1-486 partner): T1 sequence (Q9VNB5 1-486 partner)

S. flava Or42a3 [1] = target: T3, S. flava Or42a3 (Scaptomyza flava, UniProt Z9ZJ76RJY6); assay: single sensillum recording, at1 empty neuron; type: cell-based
T3 construct: full coding region (UTRs removed) in UAST-attB, attP40 site; D. melanogaster at1 OSNs (Or67d null), host Orco; with Odorant receptor coreceptor (Drosophila melanogaster, endogenous in host neuron)
T3 sequence (Z9ZJ76RJY6 1-407): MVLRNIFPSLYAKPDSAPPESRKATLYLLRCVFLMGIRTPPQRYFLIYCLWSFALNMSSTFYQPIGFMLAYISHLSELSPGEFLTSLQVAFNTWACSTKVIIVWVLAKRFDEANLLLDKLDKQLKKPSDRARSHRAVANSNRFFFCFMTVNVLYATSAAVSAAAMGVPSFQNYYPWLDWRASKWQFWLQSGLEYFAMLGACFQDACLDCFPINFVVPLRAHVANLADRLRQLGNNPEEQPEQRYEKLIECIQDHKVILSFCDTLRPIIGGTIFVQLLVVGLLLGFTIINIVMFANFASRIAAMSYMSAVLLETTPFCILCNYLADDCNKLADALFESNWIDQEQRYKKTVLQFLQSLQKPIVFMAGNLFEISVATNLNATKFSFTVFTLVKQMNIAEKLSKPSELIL
T3 sequence (Q9VNB5 1-486 partner): T1 sequence (Q9VNB5 1-486 partner)

S. flava Or42a2 = target: T4, S. flava Or42a2 (Scaptomyza flava, UniProt Z9B9G2NIU8); assay: single sensillum recording, at1 empty neuron; type: cell-based; settings: volatile stimulus 1:100 vol/vol in mineral oil
T4 construct: full coding region (UTRs removed) in UAST-attB, attP40 site; D. melanogaster at1 OSNs (Or67d null), host Orco; with Odorant receptor coreceptor (Drosophila melanogaster, endogenous in host neuron)
T4 sequence (Z9B9G2NIU8 1-404): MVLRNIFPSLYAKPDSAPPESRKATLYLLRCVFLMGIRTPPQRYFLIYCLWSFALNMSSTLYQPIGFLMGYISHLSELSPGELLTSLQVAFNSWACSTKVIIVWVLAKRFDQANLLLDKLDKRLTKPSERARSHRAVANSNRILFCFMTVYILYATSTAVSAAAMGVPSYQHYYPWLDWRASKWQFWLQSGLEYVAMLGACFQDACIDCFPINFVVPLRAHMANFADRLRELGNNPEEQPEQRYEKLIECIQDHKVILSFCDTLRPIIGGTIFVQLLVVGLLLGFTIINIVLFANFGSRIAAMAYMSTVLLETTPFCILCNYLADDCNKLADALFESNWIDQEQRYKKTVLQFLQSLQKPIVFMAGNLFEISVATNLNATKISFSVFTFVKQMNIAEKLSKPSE
T4 sequence (Q9VNB5 1-486 partner): T1 sequence (Q9VNB5 1-486 partner)

D. melanogaster Or42a = target: T5, D. melanogaster Or42a (Drosophila melanogaster, UniProt Q9V9I2); assay: single sensillum recording, at1 empty neuron; type: cell-based; settings: bound given for three odorants together
T5 construct: full length UAS transgene in D. melanogaster at1 OSNs (Or67d-Gal4 null background), endogenous Orco; EC50 from native pb1a OSNs; with Odorant receptor coreceptor (Drosophila melanogaster)
T5 sequence (Q9V9I2 1-406): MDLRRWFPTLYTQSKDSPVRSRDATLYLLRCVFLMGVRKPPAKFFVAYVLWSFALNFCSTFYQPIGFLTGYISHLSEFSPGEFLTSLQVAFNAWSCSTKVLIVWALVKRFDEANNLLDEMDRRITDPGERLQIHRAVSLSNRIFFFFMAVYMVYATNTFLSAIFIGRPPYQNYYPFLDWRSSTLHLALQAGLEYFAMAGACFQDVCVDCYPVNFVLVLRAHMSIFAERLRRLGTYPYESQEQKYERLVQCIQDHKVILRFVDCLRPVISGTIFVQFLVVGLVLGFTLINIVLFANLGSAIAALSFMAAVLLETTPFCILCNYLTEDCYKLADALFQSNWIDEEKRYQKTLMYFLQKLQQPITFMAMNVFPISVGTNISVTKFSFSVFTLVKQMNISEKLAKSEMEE
T5 sequence (Q9VNB5 1-486 partner): T1 sequence (Q9VNB5 1-486 partner)

S. flava Or42a3 [2] = settings: heterozygous UAS transgene, Fig. 8 legend prints S301P
[3] = volatile stimulus 1:100 vol/vol in mineral oil
[4] = volatile stimulus 1:100 vol/vol in DMSO

Structure (SMILES)	spikes/s (S. flava Or42a4; [3])	spikes/s (S. pallida Or42a2; [3]) [spikes/s]	spikes/s (S. flava Or42a3 [1]; [3])	spikes/s (D. melanogaster Or42a; [3]) [spikes/s]	other results
C=CCN=C=S [AITC, allyl isothiocyanate]	S. flava Or42a3 or S. flava Or42a4 were also very sensitive to AITC and trans-2-hexenal	> 96	S. flava Or42a3 or S. flava Or42a4 were also very sensitive to AITC and trans-2-hexenal	> 79	spikes/s (S. flava Or42a2): S. flava Or42a2 was only activated by AITC
CCCCN=C=S [BITC, butyl ITC]					spikes/s (S. flava Or42a3 [2]; [3]): The A181D S307P variant and the two S. flava paralogs showed similar moderate responses to BITC
CCC/C=C/C=O [trans-2-hexenal]	S. flava Or42a3 or S. flava Or42a4 were also very sensitive to AITC and trans-2-hexenal	> 96	S. flava Or42a3 or S. flava Or42a4 were also very sensitive to AITC and trans-2-hexenal	> 79	
CCC1CCC(=O)O1 (stereo not drawn) [γ-hexalactone]					spikes/s (S. flava Or42a4; [4]): < 10 spikes/s; spikes/s (S. pallida Or42a2; [4]): > 96 spikes/s; spikes/s (S. flava Or42a3 [2]; [4]): at1 population responses to BITC (white bars) and to γ-hexalactone (gray bars); spikes/s (S. flava Or42a3 [1]; [4]): S. flava Or42a3 showed a moderate response to γ-hexalactone; spikes/s (D. melanogaster Or42a; [4]): > 79 spikes/s
